From patent publication US20240285634A1, “COMPOUND AND METHOD FOR TREATING CHEMOTHERAPY-ASSOCIATED GASTROINTESTINAL SIDE EFFECTS” (ONQUALITY PHARMACEUTICALS CHINA LTD., priority 2021, published 2024)
Counter-ions that a name gives are not always drawn.

Legend:
[1] = system: Chemotherapeutic agent-caused constipation models of Balb/c mice; experiment: Relieving effect on constipation caused by a chemotherapeutic agent (Examples 202-364); assay type: in vivo
Source text: Construction of mouse animal models: Chemotherapeutic agent-caused constipation models of Balb/c mice were constructed according to the administration mode and frequency of the chemotherapeutic agent as shown in Table 4. […] Thus, chemotherapeutic agent-caused constipation models of mice are very good models to mimic constipation caused by the chemotherapeutic agent.
Balb/c mice were fed for 1 week, and then divided into groups. The experiment was divided into a control group, a chemotherapeutic agent group, and a group of the compound as shown in Formula I, each of which comprised 10 mice, to perform the administration experiment, for which the administration dosage, mode, time and frequency were shown in Table 4. The control group: being injected or intragastrically administered with the same solvent as that used in the group of the compound as shown in Formula I (the administration mode and time were shown in Table 4), and then being injected or intragastrically administered with the same solvent as that used in the chemotherapeutic agent group (the administration mode was shown in Table 4); the chemotherapeutic agent group: being injected or intragastrically administered with the same solvent as that used in the group of the compound as shown in Formula I (the administration mode and time was shown in Table 4), and then being injected or intragastrically administered with the chemotherapeutic agent (the type, administration mode and dosage were shown in Table 4); the group of the compound as shown in Formula I: being injected or intragastrically administered with the compound as shown in Formula I (the administration mode and time was shown in Table 4), and then being administered with the chemotherapeutic agent (the administration mode and dosage were shown in Table 4).
The feces reduction rate was calculated with reference to the method of Ji Eun Kim (Lab Anim Res. 2016 December; 32(4): 231-240.). Feces reduction rate (%)=(the control group−the chemotherapeutic agent group or the group of the compound as shown in Formula I)/the control group*100%
It is regarded as effective remission when the feces reduction rate of mice in the group of the compound as shown in Formula I is reduced compared with that in the chemotherapeutic agent group.
The feces amount of mice within 3 hours was observed and recorded every day. At the end of the experiment, the number of mice in the group of the compound as shown in Formula I whose feces reduction rate was lower than that of mice in the chemotherapeutic agent group was recorded. Table 4 lists various animal experiment combinations of chemotherapeutic agents and the compound as shown in Formula I, as well as the corresponding experimental results.

[2] = system: Balb/c mice, diarrhea caused by continuous administration of a chemotherapeutic agent; experiment: Relieving effect on diarrhea caused by the continuous administration of a chemotherapeutic agent (Examples 365-384); assay type: in vivo; conditions: Fluorouracil (5-Fu) intraperitoneal injection 70 mg/kg once a day for 5 days, compound intraperitoneal injection 150 mg/kg single, cycle 9 days
Source text: Balb/c mice were fed for 1 week, and then divided into groups. The experiment was divided into a control group, a chemotherapeutic agent group, and a group of the compound as shown in Formula I, each of which comprised 10 mice, to perform the administration experiment, for which the administration dosage, mode, time and frequency were shown in Table 5. The control group: being injected or intragastrically administered with the same solvent as that used in the group of the compound as shown in Formula I (the administration mode and time were shown in Table 5), and then being injected or intragastrically administered with the same solvent as that used in the chemotherapeutic agent group (the administration mode was shown in Table 5); the chemotherapeutic agent group: being injected or intragastrically administered with the same solvent as that used in the group of the compound as shown in Formula I (the administration mode and time were shown in Table 5), and then being injected or intragastrically administered with the chemotherapeutic agent (the type, administration mode, time and dosage were shown in Table 5); the group of the compound as shown in Formula I: being injected or intragastrically administered with the compound as shown in Formula I (the administration mode and time were shown in Table 5), and then being administered with the chemotherapeutic agent (the type, administration mode, time and dosage were shown in Table 5).
The scoring of diarrhea can refer to the method of Akinobu Kurita (Cancer Chemother Pharmacol 2000; 46:211-20.), Grade 0): normal feces; Grade 1: mild diarrhea, the stools is slightly wet and soft; Grade 2: moderate diarrhea, loose stools and mild perianal contamination; Grade 3: severe diarrhea, watery stools and accompanied by severe perianal staining (see FIG. 1). It is regarded as effective remission when the diarrhea grading of mice in the group of the compound as shown in Formula I is reduced compared with the average diarrhea grading of mice in the chemotherapeutic agent group.
The diarrhea grading of mice was observed and recorded every day. At the end of the experiment, the number of mice in the group of the compound as shown in Formula I whose diarrhea grading was lower than that of mice in the chemotherapeutic agent group was recorded. Table 5 lists various animal experiment combinations of chemotherapeutic agents and the compound as shown in Formula I, as well as the corresponding experimental results. (Relative remission rate %=the number of mice in the group of the compound as shown in Formula I whose diarrhea has been effectively relieved/the total number of mice in the group of the compound as shown in Formula I*100%. The establishment rate of diarrhea model in the chemotherapeutic agent group was 50%-80%, that is, about 5-8 of 10 mice developed diarrhea during the experiment, and there were cases of individual mice death or not developing diarrhea.)

Structure (SMILES)	Relative remission rate (%) ([1]; Example 315, Fluorouracil 125 (F) and irinotecan 240 (I) mg/kg intraperitoneal injection single, compound intraperitoneal injection 150 mg/kg single, 0.5 h before chemotherapeutic agent, cycle 10 days)	Relative remission rate (%) ([1]; Example 316, Fluorouracil 125 (F) and irinotecan 240 (I) mg/kg intraperitoneal injection single, compound intraperitoneal injection 150 mg/kg single, 4 h before chemotherapeutic agent, cycle 10 days)	Relative remission rate (%) ([1]; Example 317, Fluorouracil 125 (F) and irinotecan 240 (I) mg/kg intraperitoneal injection single, compound intraperitoneal injection 150 mg/kg single, 12 h before chemotherapeutic agent, cycle 10 days)	Relative remission rate (%) ([1]; Example 343, Fluorouracil 100 (F), oxaliplatin 5 (O), irinotecan 100 (I) and tetrahydrofolic acid 100 (L) mg/kg intravenous injection single, compound intraperitoneal injection 150 mg/kg single, 0.5 h before chemotherapeutic agent, cycle 8 days)	Relative remission rate (%) ([1]; Example 344, Fluorouracil 100 (F), oxaliplatin 5 (O), irinotecan 100 (I) and tetrahydrofolic acid 100 (L) mg/kg intravenous injection single, compound intraperitoneal injection 150 mg/kg single, 12 h before chemotherapeutic agent, cycle 8 days)	Relative remission rate (%) ([2]; Example 373, 2 h before chemotherapeutic agent)	Relative remission rate (%) ([2]; Example 374, 4 h before chemotherapeutic agent)	Relative remission rate (%) ([2]; Example 375, 8 h before chemotherapeutic agent)	Relative remission rate (%) ([1]; Example 353, Fluorouracil 100 (F), oxaliplatin 5 (O), irinotecan 100 (I) and tetrahydrofolic acid 100 (L) mg/kg intraperitoneal injection single, compound intraperitoneal injection 100 mg/kg single, 0.5 h before chemotherapeutic agent, cycle 7 days)	Relative remission rate (%) ([1]; Example 354, Fluorouracil 100 (F), oxaliplatin 5 (O), irinotecan 100 (I) and tetrahydrofolic acid 100 (L) mg/kg intraperitoneal injection single, compound intraperitoneal injection 100 mg/kg single, 12 h before chemotherapeutic agent, cycle 7 days)	Relative remission rate (%) ([1]; Example 357, Topotecan intraperitoneal injection 10 mg/kg single, compound oral administration 100 mg/kg single, 24 h before chemotherapeutic agent, cycle 14 days)	Relative remission rate (%) ([1]; Example 358, Topotecan intravenous injection 20 mg/kg single, compound oral administration 100 mg/kg single, 12 h before chemotherapeutic agent, cycle 14 days)
CN1CCN(c2ccc(Nc3ncc4cc5n(c4n3)C3(CCCCC3)CNC5=O)nc2)CC1 [Compound I hydrochloride, Trilaciclib dihydrochloride]	20%	60%	40%	30%	70%	60%	30%	10%				
CC(C)N1CCN(c2ccc(Nc3ncc4cc5n(c4n3)C3(CCCCC3)CNC5=O)nc2)CC1 [Compound IV hydrochloride, Lerociclibdihydrochloride]									20%	60%	30%	70%
